The values that follow are results of earlier work, collected in PubChem BioAssay AID1259409 (Chemical Carcinogenesis Research Information System (CCRIS), 2018).

Molecules are shown by their SMILES.

For the series, the system named is rodent chemically induced tumor inhibition, incidence and multiplicity. The series is described as follows: CCRIS tumor inhibitor studies. To be noted: Dose [Inhibitor]: 0.

`O=c1oc2c(O)c(O)cc3c(=O)oc4c(O)c(O)cc1c4c23`: the “tumour outcome (control, treated, inhibition, significance)” value by setting is: (Carcinogen: AZOXYMETHANE, 25843-45-2, 4000 PPM IN DIET BEGINNING PRIOR TO CARCINOGEN DOSE AND CONTINUING FOR DURATION OF STUDY (STUDY DURATION: 54 WK), Route [Inhibitor]: ORAL, Species: RAT, Strain/Sex: F344/MALE, Target Tissue: Type of Lesion: SMALL INTESTINE: ADENOCARCINOMA, Dose [Carcinogen]: 15 MG/KG 1/WK FOR 2 WK, Promoter: NONE USED) 50%, 36%, 28%, not calculated; (Carcinogen: AZOXYMETHANE, 25843-45-2, 4000 PPM IN DIET BEGINNING PRIOR TO CARCINOGEN DOSE AND CONTINUING FOR DURATION OF STUDY (STUDY DURATION: 54 WK), Route [Inhibitor]: ORAL, Species: RAT, Strain/Sex: F344/MALE, Target Tissue: Type of Lesion: SMALL INTESTINE: ADENOMA, Dose [Carcinogen]: 15 MG/KG 1/WK FOR 2 WK, Promoter: NONE USED) 3%, 0%, 100%, not calculated; (Carcinogen: AZOXYMETHANE, 25843-45-2, 4000 PPM IN DIET FOR 56 WK BEGINNING 2 WK PRIOR TO CARCINOGEN TREATMENT (STUDY DURATION: 56 WK), Route [Inhibitor]: ORAL, Species: RAT, Strain/Sex: F344/MALE, Target Tissue: Type of Lesion: COLON (DISTAL): TUMOR, Dose [Carcinogen]: 15 MG/KG 1/WK FOR 2 WK, Promoter: NONE USED) 47%, 47%, 0%, not significant; (Carcinogen: AZOXYMETHANE, 25843-45-2, 4000 PPM IN DIET FOR 56 WK BEGINNING 2 WK PRIOR TO CARCINOGEN TREATMENT (STUDY DURATION: 56 WK), Route [Inhibitor]: ORAL, Species: RAT, Strain/Sex: F344/MALE, Target Tissue: Type of Lesion: COLON (PROXIMAL): TUMOR, Dose [Carcinogen]: 15 MG/KG 1/WK FOR 2 WK, Promoter: NONE) 39%, 44%, -13%, not significant; (Carcinogen: AZOXYMETHANE, 25843-45-2, 8000 PPM IN DIET BEGINNING PRIOR TO CARCINOGEN DOSE AND CONTINUING FOR DURATION OF STUDY (STUDY DURATION: 54 WK), Route [Inhibitor]: ORAL, Species: RAT, Strain/Sex: F344/MALE, Target Tissue: Type of Lesion: COLON: ADENOCARCINOMA, Dose [Carcinogen]: 15 MG/KG 1/WK FOR 2 WK, Promoter: NONE USED) 72%, 64%, 11%, not calculated; (Carcinogen: AZOXYMETHANE, 25843-45-2, 8000 PPM IN DIET BEGINNING PRIOR TO CARCINOGEN DOSE AND CONTINUING FOR DURATION OF STUDY (STUDY DURATION: 54 WK), Route [Inhibitor]: ORAL, Species: RAT, Strain/Sex: F344/MALE, Target Tissue: Type of Lesion: COLON: ADENOMA, Dose [Carcinogen]: 15 MG/KG 1/WK FOR 2 WK, Promoter: NONE USED) 14%, 3%, 76%, not calculated. For the same molecule, the “tumour outcome (control, treated, inhibition, significance)” value by setting is: (Carcinogen: AZOXYMETHANE, 25843-45-2, 8000 PPM IN DIET BEGINNING PRIOR TO CARCINOGEN DOSE AND CONTINUING FOR DURATION OF STUDY (STUDY DURATION: 54 WK), Route [Inhibitor]: ORAL, Species: RAT, Strain/Sex: F344/MALE, Target Tissue: Type of Lesion: SMALL INTESTINE: ADENOCARCINOMA, Dose [Carcinogen]: 15 MG/KG 1/WK FOR 2 WK, Promoter: NONE USED) 50%, 28%, 44%, not calculated; (Carcinogen: AZOXYMETHANE, 25843-45-2, 8000 PPM IN DIET BEGINNING PRIOR TO CARCINOGEN DOSE AND CONTINUING FOR DURATION OF STUDY (STUDY DURATION: 54 WK), Route [Inhibitor]: ORAL, Species: RAT, Strain/Sex: F344/MALE, Target Tissue: Type of Lesion: SMALL INTESTINE: ADENOMA, Dose [Carcinogen]: 15 MG/KG 1/WK FOR 2 WK, Promoter: NONE USED) 3%, 0%, 100%, not calculated; (Carcinogen: AZOXYMETHANE, 25843-45-2, 8000 PPM IN DIET FOR 56 WK BEGINNING 2 WK PRIOR TO CARCINOGEN TREATMENT (STUDY DURATION: 56 WK), Route [Inhibitor]: ORAL, Species: RAT, Strain/Sex: F344/MALE, Target Tissue: Type of Lesion: COLON(DISTAL): TUMOR, Dose [Carcinogen]: 15 MG/KG 1/WK FOR 2 WK, Promoter: NONE USED) 47%, 47%, 0%, not significant; (Carcinogen: AZOXYMETHANE, 25843-45-2, 8000 PPM IN DIET FOR 56 WK BEGINNING 2 WK PRIOR TO CARCINOGEN TREATMENT (STUDY DURATION: 56 WK), Route [Inhibitor]: ORAL, Species: RAT, Strain/Sex: F344/MALE, Target Tissue: Type of Lesion: COLON(PROXIMAL): TUMOR, Dose [Carcinogen]: 15 MG/KG 1/WK FOR 2 WK, Promoter: NONE USED) 39%, 30%, 23%, not significant; (Carcinogen: BENZO[A]PYRENE, 50-32-8, 300 NMOL (TOTAL DOSE) APPLIED 10 MIN PRIOR TO CARCINOGEN DOSE INJECTED AS 1/7, 2/7, AND 4/7 OF THE TOTAL ON DAYS 1, 8, Route [Inhibitor]: INTRAPERITONEAL, Species: MOUSE, Strain/Sex: ICR/MALE, FEMALE, Target Tissue: Type of Lesion: LUNG: TUMOR, Dose [Carcinogen]: 450 NMOL (TOTAL DOSE) INJECTED IN DOSES OF 1/7, 2/7, AND 4/7 ON DAYS 1, 8, AND 15 OF LIFE, RESPECTIVELY, Promoter: NONE USED) 74%, 75%, -1%, not significant.
